Patent US20080167268A1, “Particulate beta-glucan compositions for regulating dendritic cells” (priority 2006, published 2008)

Tested on: Lewis Lung Carcinoma cells (LLC) transfected with OVA and MUC1
Test: Staurosporine-induced apoptosis of transfected LLCs (PI / annexin V-FITC flow cytometry)
Format: cell-based
Details: transfected LLCs treated with Staurosporine vs untreated; FIG. 2
Description: Transfected LLCs were either left untreated (plot 22) or treated (plot 24) with Staurosporine, which induces apoptosis. Cells from both groups were stained with propidium iodide (PI) and annexin V-FITC and analyzed by flow cytometry.

Compound: CN[C@@H]1C[C@H]2O[C@@](C)([C@@H]1OC)n1c3ccccc3c3c4c(c5c6ccccc6n2c5c31)C(=O)NC4 [Staurosporine]
- induction of apoptosis (annexin V-FITC positive cells): able to induce apoptosis
